Several values for one entry are separate records, joined by “and”; a condition that tells them apart may be missing. Equal values may be shown once.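 Compound exposure: 48 hours, 5 concentrations, 96-well plates. GI50 is the concentration that inhibits growth by half. Definition used: TGI = concentration required for complete inhibition of growth.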
Experiments:
Test in all cases: NCI tumour cell line growth inhibition, 48 h
[1] = system: XF 498 CNS
[2] = system: LXFL 529 NSCLC
[3] = system: DMS 273 small cell lung
[4] = system: DLD-1 colon
[5] = system: DMS 114 small cell lung
[6] = system: SNB-78 CNS
[7] = system: RXF-631 renal
[8] = system: HOP-18 NSCLC
[9] = system: P388/ADR leukemia
[10] = system: SN12K1 renal
[11] = system: P388 leukemia

Row | Compound | TGI [1] | TGI [2] | TGI [3] | TGI [4] | TGI [5] | TGI [6] | TGI [7] | GI50 [2] | GI50 [8] | TGI [8] | GI50 [3] | GI50 [4] | GI50 [5] | GI50 [6] | TGI [9] | TGI [10] | TGI [11]
1 | NC(=O)CCCC(NCc1c2ccccc2nc2ccccc12)C(=O)O (centres undefined) | 61.8 µM | > 100 µM | 86.7 µM | > 100 µM | > 100 µM | – | – | – | – | – | – | – | – | – | – | – | –
2 | O=S(=O)(Sc1ccc(Cl)cc1)c1ccc(Cl)cc1 | 53.4 µM | 32.7 µM | 29.6 µM | 31.6 µM | 28.6 µM | 45.9 µM | – | – | – | – | – | – | – | – | – | – | –
3 | CC(=O)C(O)N1C(=O)C=CC1=O (centres undefined) | 31.5 µM | 28.6 µM and 3.32 µM | 32.2 µM and 28.1 µM | 23.6 µM and 3.97 µM | 37.7 µM and 11.1 µM | 37 µM and 54.9 µM | 33.9 µM | 15.3 µM | 17.2 µM | 31.3 µM and 40.5 µM | 18 µM | 9.71 µM | 19.6 µM | 19.9 µM | – | – | –
4 | CCCCCCCSc1nc2c(C(=O)OCC)ncn2c2ccccc12 | > 100 µM | > 100 µM | > 100 µM | – | > 100 µM | – | – | – | – | – | – | – | – | – | – | – | –
5 | Cc1c2cc[n+](CCN3CCCCC3)cc2c(C)c2c1[nH]c1ccc(O)cc12 | – | – | 17.1 µM | 49.6 µM | 21.6 µM | 64.1 µM | – | – | – | 37 µM | – | – | – | – | 31.8 µM | 20.3 µM | –
6 | CC1C(O)C2(Oc3cc4c(c5c3[C@@H](CC5O)[C@H]2C)CCC2Cc3nc5c(nc3C[C@@]42C)CC2CCC3C4=C[C@H]6O[C@@]7(O[C@@](C)(CO)C[C@@H]7O)C(C)[C@@]6(O)[C@]4(C)[C@@H](O)CC3[C@]2(C)C5)OC1(C)C (some centres undefined) | 0.343 µM | – | 0.114 µM | > 3.67 µM | 0.904 µM | 0.584 µM | – | – | – | > 3.67 µM | – | – | – | – | 1.84 µM | 0.194 µM | 0.435 µM
7 | CN(C)CCCNc1ccc2ncn3c4ccccc4c(=O)c1c23 | – | > 100 µM | – | 39.6 µM | > 100 µM | 78.7 µM | 26.3 µM | – | – | 68.4 µM | – | – | – | – | – | – | –
8 | NC(=O)NN=C(CS)CS | – | – | 45.1 µM | > 65.5 µM | 87.5 µM | > 100 µM | – | – | – | 66.4 µM | – | – | – | – | > 100 µM | 41.6 µM | 47.4 µM
